Consider 24 compounds from PubChem BioAssay AID240 (DTP/NCI, 2004).

The test system of this experiment is Lymphoma 4 ip in BDF1 mice, median survival. Briefly: NCI In Vivo Anticancer Drug Screen. Data for tumor model Lymphoma 4 (intraperitoneal) in B6D2F1 (BDF1) mice. As to conditions: endpoint: median survival time, schedule: Q01DX010 (ip), higher = longer survival. As for the experimental part:
The antitumor activity of compounds was measured in mice bearing transplantable tumors. Survival or tumor size were measured and the results are expressed as the measurement made in the treated group (T) divided by the measurement made in the vehicle treated control group (C). The tumor model used in this assay is Lymphoma 4 (intraperitoneal) in B6D2F1 (BDF1) mice

Where [1] appears, read: dose: 80.0 mg/kg/injection, vehicle: saline.
[2] abbreviates: dose: 25.0 mg/kg/injection, vehicle: saline.
The mark [3] stands for this setting: dose: 50.0 mg/kg/injection, vehicle: saline.
[4] abbreviates: dose: 1.25 mg/kg/injection, vehicle: saline.
Where [5] appears, read: dose: 5.0 mg/kg/injection, vehicle: saline.
[6] abbreviates: dose: 10.0 mg/kg/injection, vehicle: saline.
[7] abbreviates: dose: 0.25 mg/kg/injection, vehicle: saline.
Setting [8] is: dose: 0.5 mg/kg/injection, vehicle: saline.
Where [9] appears, read: dose: 1.0 mg/kg/injection, vehicle: saline.
[10] abbreviates: dose: 2.0 mg/kg/injection, vehicle: saline.
[11] abbreviates: dose: 4.0 mg/kg/injection, vehicle: saline.
The mark [12] stands for this setting: dose: 8.0 mg/kg/injection, vehicle: saline.
[13] abbreviates: dose: 16.0 mg/kg/injection, vehicle: saline.
Setting [14] is: dose: 2.5 mg/kg/injection, vehicle: saline.
Where [15] appears, read: dose: 20.0 mg/kg/injection, vehicle: saline.
Setting [16] is: dose: 200.0 mg/kg/injection, vehicle: saline.
Where [17] appears, read: dose: 7.5 mg/kg/injection, vehicle: saline.
Setting [18] is: dose: 15.0 mg/kg/injection, vehicle: saline.
The mark [19] stands for this setting: dose: 30.0 mg/kg/injection, vehicle: saline.
The mark [20] stands for this setting: dose: 3.13 mg/kg/injection, vehicle: saline.
Where [21] appears, read: dose: 6.25 mg/kg/injection, vehicle: saline.
Where [22] appears, read: dose: 12.5 mg/kg/injection, vehicle: saline.

Where “and” joins values, the source holds several entries; their conditions need not be identical. Equal entries are not always repeated. Inconclusive results and toxic doses are left out. Starred links: 1 amine or outer side, 2 acyl side, 3 side chain; linkers in the order of their positions; H or OH if unused. Positions of bridges follow the written chain, without caps; N, C: chain ends. Non-standard residues stand in square brackets, D forms with d. Residues, ends and D or L forms follow the SMILES beside them. Chains are numbered I, II in the order given. Actinocin(9to1) = Cc1c2oc3c(C)ccc(C(=O)[*:1])c3nc-2c(C(=O)[*:2])c(N)c1=O; aThr = C[C@H](O)[C@H](N)C(=O)O; NMeV = CN[C@H](C(=O)O)C(C)C; Sar = CNCC(=O)O

Consider `CN(C)c1ccc(Nc2c3ccccc3nc3ccccc23)cc1`, for which the T/C (dose: 36.0 mg/kg/injection, vehicle: saline) was 107 % of control; the T/C (dose: 54.0 mg/kg/injection, vehicle: saline) was 100 % of control and 115 % of control; the T/C under setting [1] was 121 % of control and 123 % of control.
In the case of `CC(=O)Nc1ccc2nc3ccc(NC(C)=O)cc3[n+](-c3ccccc3)c2c1`, the T/C under setting [2] was 111 % of control and the T/C under setting [3] was 117 % of control.
`N#[N+]c1cnc([O-])[nH]c1=O`: the T/C reads like this: under setting [4], 113 % of control; under setting [5], 150 % of control; under setting [6], 176 % of control.
On to `Nc1nc(F)nc2c1ncn2C1OC(CO)C(O)C1O` (stereo not given), for which the T/C was 100 % of control under setting [7]; 107 % of control and 114 % of control under setting [8]; 92 % of control and 103 % of control under setting [9]; 107 % of control under setting [10]; 96 % of control under setting [11].
As to `Nc1nc(N)c2nc(CNc3ccc(C(=O)NC(CCC(=O)O)C(=O)O)cc3)cnc2n1` (stereo not given), the T/C reads like this: (dose: 0.05 mg/kg/injection, vehicle: other) 96 % of control and 110 % of control; (dose: 0.1 mg/kg/injection, vehicle: other) 110 % of control and 114 % of control; (dose: 0.2 mg/kg/injection, vehicle: other) 116 % of control and 117 % of control.
For `CC(CCC(C)OS(C)(=O)=O)OS(C)(=O)=O` (stereo not given), the T/C by setting is: under setting [10], 103 % of control; under setting [11], 103 % of control and 107 % of control; under setting [12], 96 % of control and 100 % of control; under setting [13], 107 % of control and 113 % of control.
Regarding `Nc1nc(=S)c2ncn(C3OC(CO)C(O)C3O)c2[nH]1` (stereo not given), the T/C was 100 % of control under setting [7]; 106 % of control under setting [8]; 102 % of control and 115 % of control under setting [9]; 100 % of control under setting [10].
As for `CC[C@]1(O)C[C@H]2CN(CCc3c([nH]c4ccccc34)[C@@](C(=O)OC)(c3cc4c(cc3OC)N(C=O)[C@H]3[C@@](O)(C(=O)OC)[C@H](OC(C)=O)[C@]5(CC)C=CCN6CC[C@]43[C@@H]65)C2)C1`, the T/C by setting is: (dose: 0.03 mg/kg/injection, vehicle: saline) 104 % of control and 121 % of control; (dose: 0.06 mg/kg/injection, vehicle: saline) 108 % of control; (dose: 0.12 mg/kg/injection, vehicle: saline) 158 % of control; under setting [8], 104 % of control.
Regarding `CC1CN1P(=S)(N1CC1C)N1CC1C` (stereo not given), the T/C reads like this: under setting [4], 103 % of control; under setting [14], 93 % of control and 115 % of control; under setting [5], 100 % of control and 111 % of control; under setting [6], 111 % of control and 120 % of control; under setting [15], 115 % of control.
For `Nc1nc2n[nH]nc2c(=O)[nH]1`, the T/C reads like this: (dose: 25.0 mg/kg/injection, vehicle: alkali diluted with saline) 106 % of control; (dose: 50.0 mg/kg/injection, vehicle: alkali diluted with saline) 120 % of control; (dose: 200.0 mg/kg/injection, vehicle: alkali diluted with saline) 90 % of control.
As for `OC(CBr)C(O)C(O)C(O)CBr` (stereo not given), the T/C runs as follows: under setting [2], 115 % of control; under setting [3], 115 % of control; under setting [16], 115 % of control.
Take `CN(C)c1ccc(/C=C/c2ccnc3ccccc23)cc1`: the T/C is 93 % of control and 103 % of control under setting [11]; 96 % of control and 100 % of control under setting [12]; 93 % of control and 100 % of control under setting [13].
Turning to `CN(C)[C@@H]1C(=O)C(C(N)=O)=C(O)[C@@]2(O)C(=O)C3=C(O)c4c(O)cccc4C[C@H]3C[C@@H]12`, the T/C is, setting by setting: (dose: 3.75 mg/kg/injection, vehicle: saline) 114 % of control; under setting [17], 107 % of control and 111 % of control; under setting [18], 107 % of control; under setting [19], 100 % of control and 107 % of control.
As for `Cc1c2oc3c(C)ccc(C(=O)N[C@@H]4C(=O)N[C@H](C(C)C)C(=O)N5CCC[C@H]5C(=O)N(C)CC(=O)N(C)[C@@H](C(C)C)C(=O)O[C@H]4C)c3nc-2c(C(=O)N[C@@H]2C(=O)N[C@H](C(C)C)C(=O)N3CCC[C@H]3C(=O)N(C)CC(=O)N(C)[C@@H](C(C)C)C(=O)O[C@H]2C)c(N)c1=O` (I: [aThr][dV]P[Sar][NMeV] / II: [aThr][dV]P[Sar][NMeV]; ester I:1-I:C, II:1-II:C; linker I:N-II:N via Actinocin(9to1)), the T/C by setting is: (dose: 12.5 micrograms/kg/injection, vehicle: other) 114 % of control and 123 % of control; (dose: 25.0 micrograms/kg/injection, vehicle: other) 123 % of control; (dose: 50.0 micrograms/kg/injection, vehicle: other) 150 % of control and 179 % of control; (dose: 100.0 micrograms/kg/injection, vehicle: other) 194 % of control.
On to `CCn1cnc2c(=S)nc[nH]c21`, for which the T/C runs as follows: under setting [11], 96 % of control; under setting [12], 100 % of control; (dose: 15.6 mg/kg/injection, vehicle: saline) 93 % of control and 106 % of control; under setting [13], 96 % of control; (dose: 31.3 mg/kg/injection, vehicle: saline) 103 % of control; (dose: 32.0 mg/kg/injection, vehicle: saline) 96 % of control and 100 % of control. Also, the T/C (dose: 62.5 mg/kg/injection, vehicle: saline) was 100 % of control.
For `CCOC(=O)c1[nH]c2ccccc2c1CN(CCCl)CCCl`, under setting [6], the T/C is 116 % of control.
Turning to `Clc1ncnc2nc[nH]c12`, the T/C runs as follows: under setting [17], 100 % of control and 102 % of control; under setting [18], 90 % of control and 94 % of control; under setting [19], 90 % of control and 105 % of control; (dose: 60.0 mg/kg/injection, vehicle: saline) 96 % of control and 100 % of control.
For the compound `OCC1OC(n2cnc3c(=S)nc[nH]c32)C(O)C1O` (stereo not given), the T/C under setting [15] was 96 % of control and 105 % of control; the T/C (dose: 40.0 mg/kg/injection, vehicle: saline) is 106 % of control and 111 % of control; the T/C under setting [1] was 100 % of control and 109 % of control; the T/C (dose: 160.0 mg/kg/injection, vehicle: saline) is 100 % of control and 105 % of control.
As to `Oc1cc(CN(CCCl)CCCl)c(O)cc1CN(CCCl)CCCl`, the T/C by setting is: (dose: 0.63 mg/kg/injection, vehicle: saline) 113 % of control and 120 % of control; under setting [4], 106 % of control and 116 % of control.
Take `Nc1nc(=S)c2[nH]cnc2[nH]1`: the T/C (dose: 1.25 mg/kg/injection, vehicle: other) was 88 % of control; the T/C under setting [4] is 94 % of control; the T/C under setting [14] was 88 % of control.
On to `CCCNc1ncnc2[nH]ncc12`, for which the T/C is 109 % of control and 111 % of control under setting [20]; 103 % of control and 123 % of control under setting [21]; 103 % of control and 117 % of control under setting [22]; 91 % of control and 109 % of control under setting [2].
In the case of `CC(=O)NC1=C(N2CC2)C(=O)C(NC(C)=O)=C(N2CC2)C1=O`, the T/C was 121 % of control under setting [7], 175 % of control under setting [9] and 164 % of control under setting [10].
On to `C[C@H]1C(=O)O[C@@H]2CCN3CC=C(COC(=O)[C@](C)(O)[C@@]1(C)O)[C@H]23`, for which the T/C under setting [20] was 94 % of control and 100 % of control; the T/C under setting [21] was 93 % of control and 94 % of control; the T/C under setting [22] was 94 % of control and 103 % of control; the T/C under setting [2] was 91 % of control and 103 % of control.
`CN(C)/N=N/c1nc[nH]c1C(N)=O`: the T/C is 114 % of control under setting [2], 114 % of control under setting [3] and 114 % of control under setting [16].
